In PubChem BioAssay (NCI):
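Tested at 5 concentrations; 48 h exposure; 96-well plates; endpoints linearly interpolated, else capped at highest concentration. GI50 is the concentration that inhibits growth by half. TGI marks complete inhibition of growth.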

What was measured:
Test in all cases: NCI tumour cell line growth inhibition, 48 h
RXF 393 renal = tested on: RXF 393 renal
SK-MEL-28 melanoma = tested on: SK-MEL-28 melanoma
SF-268 CNS = tested on: SF-268 CNS
UO-31 renal = tested on: UO-31 renal
HL-60(TB) leukemia = tested on: HL-60(TB) leukemia
786-0 renal = tested on: 786-0 renal
SNB-19 CNS = tested on: SNB-19 CNS
MDA-MB-231 breast = tested on: MDA-MB-231 breast
SR leukemia = tested on: SR leukemia
NCI-H23 lung = tested on: NCI-H23 lung
A498 renal = tested on: A498 renal
KM12 colon = tested on: KM12 colon
PC-3 prostate = tested on: PC-3 prostate
OVCAR-5 ovarian = tested on: OVCAR-5 ovarian
M14 melanoma = tested on: M14 melanoma
SF-295 CNS = tested on: SF-295 CNS
NCI/ADR-RES ovarian = tested on: NCI/ADR-RES ovarian
ACHN renal = tested on: ACHN renal
HCC-2998 colon = tested on: HCC-2998 colon
MCF7 breast = tested on: MCF7 breast
T-47D breast = tested on: T-47D breast
COLO 205 colon = tested on: COLO 205 colon
TK-10 renal = tested on: TK-10 renal
A549 NSCLC = tested on: A549 NSCLC
SNB-75 CNS = tested on: SNB-75 CNS
HT29 colon = tested on: HT29 colon
BT-549 breast = tested on: BT-549 breast
CAKI-1 renal = tested on: CAKI-1 renal
SN12C renal = tested on: SN12C renal
HOP-62 NSCLC = tested on: HOP-62 NSCLC
UACC-257 melanoma = tested on: UACC-257 melanoma
UACC-62 melanoma = tested on: UACC-62 melanoma
HCT-15 colon = tested on: HCT-15 colon
OVCAR-4 ovarian = tested on: OVCAR-4 ovarian
SK-MEL-5 melanoma = tested on: SK-MEL-5 melanoma
OVCAR-8 ovarian = tested on: OVCAR-8 ovarian
SK-OV-3 ovarian = tested on: SK-OV-3 ovarian
IGROV1 ovarian = tested on: IGROV1 ovarian
MALME-3M melanoma = tested on: MALME-3M melanoma
MOLT-4 leukemia = tested on: MOLT-4 leukemia
NCI-H460 lung = tested on: NCI-H460 lung
NCI-H522 lung = tested on: NCI-H522 lung
K-562 leukemia = tested on: K-562 leukemia
NCI-H226 lung = tested on: NCI-H226 lung
SF-539 CNS = tested on: SF-539 CNS
RPMI-8226 leukemia = tested on: RPMI-8226 leukemia
OVCAR-3 ovarian = tested on: OVCAR-3 ovarian
CCRF-CEM leukemia = tested on: CCRF-CEM leukemia
HS 578T breast = tested on: HS 578T breast
DU-145 prostate = tested on: DU-145 prostate
MDA-MB-435 = tested on: MDA-MB-435
HCT-116 colon = tested on: HCT-116 colon
SW-620 colon = tested on: SW-620 colon

## FC(F)(F)c1ccc(-c2cnc(-c3ncon3)nc2NC2CCCCCC2)cc1
RXF 393 renal
  GI50: 28.9 µM
  TGI: > 100 µM
SK-MEL-28 melanoma
  GI50: 99.2 µM
  TGI: > 100 µM
SF-268 CNS
  GI50: 64 µM
  TGI: > 100 µM
UO-31 renal
  GI50: 26.4 µM
  TGI: > 100 µM
HL-60(TB) leukemia
  GI50: 22.3 µM
  TGI: 48 µM
786-0 renal
  GI50: 63.6 µM
  TGI: > 100 µM
SNB-19 CNS
  GI50: 29.2 µM
  TGI: > 100 µM
MDA-MB-231 breast
  GI50: 22.5 µM
  TGI: 89 µM
SR leukemia
  GI50: 20.4 µM
  TGI: 56.8 µM
NCI-H23 lung
  GI50: 37 µM
  TGI: > 100 µM
A498 renal
  GI50: 42.9 µM
  TGI: > 100 µM
KM12 colon
  GI50: 36.3 µM
  TGI: > 100 µM
PC-3 prostate
  GI50: 24.6 µM
  TGI: 86.5 µM
OVCAR-5 ovarian
  GI50: > 100 µM
  TGI: > 100 µM
M14 melanoma
  GI50: 56.3 µM
  TGI: > 100 µM
SF-295 CNS
  GI50: 34.5 µM
  TGI: > 100 µM
NCI/ADR-RES ovarian
  GI50: 35.3 µM
  TGI: > 100 µM
ACHN renal
  GI50: 48.6 µM
  TGI: > 100 µM
HCC-2998 colon
  GI50: 56.6 µM
  TGI: > 100 µM
MCF7 breast
  GI50: 31.6 µM
  TGI: > 100 µM
T-47D breast
  GI50: 25.6 µM
  TGI: 87.3 µM
COLO 205 colon
  GI50: 27.7 µM
  TGI: 84.8 µM
TK-10 renal
  GI50: > 100 µM
  TGI: > 100 µM
A549 NSCLC
  GI50: 38 µM
  TGI: > 100 µM
SNB-75 CNS
  GI50: 50.5 µM
  TGI: > 100 µM
HT29 colon
  GI50: 34.7 µM
  TGI: > 100 µM
BT-549 breast
  GI50: 38.5 µM
  TGI: > 100 µM
CAKI-1 renal
  GI50: 67.9 µM
  TGI: > 100 µM
SN12C renal
  GI50: 21.4 µM
  TGI: 63 µM
HOP-62 NSCLC
  GI50: 76.8 µM
  TGI: > 100 µM
UACC-257 melanoma
  GI50: 53.2 µM
  TGI: > 100 µM
UACC-62 melanoma
  GI50: 48.6 µM
  TGI: > 100 µM
HCT-15 colon
  GI50: 34.3 µM
  TGI: > 100 µM
OVCAR-4 ovarian
  GI50: 37.2 µM
  TGI: > 100 µM
SK-MEL-5 melanoma
  GI50: 40.7 µM
  TGI: > 100 µM
OVCAR-8 ovarian
  GI50: 32.2 µM
  TGI: > 100 µM
SK-OV-3 ovarian
  GI50: > 100 µM
  TGI: > 100 µM
IGROV1 ovarian
  GI50: 52.5 µM
  TGI: > 100 µM
MALME-3M melanoma
  GI50: 49.8 µM
  TGI: > 100 µM
MOLT-4 leukemia
  GI50: 19.8 µM
  TGI: 55 µM
NCI-H460 lung
  GI50: 37.2 µM
  TGI: > 100 µM
NCI-H522 lung
  GI50: 14.2 µM
  TGI: 82.6 µM
K-562 leukemia
  GI50: 34.8 µM
  TGI: > 100 µM
NCI-H226 lung
  GI50: 43.1 µM
  TGI: > 100 µM
SF-539 CNS
  GI50: > 100 µM
  TGI: > 100 µM
RPMI-8226 leukemia
  GI50: 18.4 µM
  TGI: 49.3 µM
OVCAR-3 ovarian
  GI50: 36.8 µM
  TGI: > 100 µM
CCRF-CEM leukemia
  GI50: 22.9 µM
  TGI: 60.4 µM
HS 578T breast
  GI50: 32.1 µM
  TGI: > 100 µM
DU-145 prostate
  GI50: 63.3 µM
  TGI: > 100 µM
MDA-MB-435
  GI50: 71.3 µM
  TGI: > 100 µM
HCT-116 colon
  GI50: 33.9 µM
  TGI: > 100 µM
SW-620 colon
  GI50: 43.3 µM
  TGI: > 100 µM
